# Data from patent US9795140B2, “Molecules having pesticidal utility, and intermediates, compositions, and processes, related thereto” (priority 2015, dated 2017).
# Legend:
# Format in all cases: in vivo
# [1] = test system: Beet Armyworm (Spodoptera exigua, LAPHEG); assay: Bioassay on Beet Armyworm (BAW), 128-well diet tray assay; settings: 168 h, 50 μg/cm^2 on artificial diet, second instar larvae, 25° C., five to seven days, average of eight wells, read-out: BAW % Control (or Mortality) rating
# Method in brief: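 Diet in each of eight wells received 50 μg/cm^2 of test molecule (90:10 acetone-water, dried), then one to five second-instar larvae were added. Mortality (%) was scored after five to seven days at 25° C. under 14:10 light-dark and averaged across the wells.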
# [2] = test system: Cabbage Looper (Trichoplusia ni, TRIPNI); assay: Bioassay on Cabbage Looper (CL), 128-well diet tray assay; settings: 168 h, 50 μg/cm^2 on artificial diet, second instar larvae, 25° C., five to seven days, average of eight wells, read-out: CL % Control (or Mortality) rating
# Method in brief: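 Percent larval mortality, averaged across eight replicate wells, was scored after 5–7 days at 25 °C with a 14:10 photoperiod. Each well held 1 mL diet surface-treated at 50 μg/cm^2 with test molecule from a 90:10 acetone-water solution, then dried. Wells were infested with one to five second-instar cabbage loopers.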
# [3] = test system: Yellow Fever Mosquito (Aedes aegypti, AEDSAE); assay: Bioassay on Yellow Fever Mosquito (YFM) larvae, 96-well plate; settings: about 1 day-old larvae, room temperature, 3 days, scored on mortality
# Method in brief: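 Each well was scored for mortality after 3 days at room temperature under a non-evaporative lid. Test molecules came from DMSO masters (4000 ppm stock) diluted with water/acetone 90:10 and dispensed into six replicate plates, which were then infested with roughly 1-day-old larvae in liver-powder water.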
SMILES,mortality at 50 µg/cm2 [1],mortality at 50 µg/cm2 [2],YFM % Control (or Mortality) rating [3]
"CC(C)(NC(=O)c1cc(NC(=O)[C@H]2[C@H](c3cc(Cl)cc(Cl)c3)C2(Cl)Cl)ccc1Cl)c1ccc(F)cc1 (relative stereo) [F97, 2-Chloro-5-(trans-2,2-dichloro-3-(3,5-dichlorophenyl)cyclopropane-1-carboxamido)-N-(2-(4-fluorophenyl)propan-2-yl)benzamide]",50 to 100%,50 to 100%,A (80-100)
"O=C(NCC(F)(F)F)c1cc(NC(=O)[C@H]2[C@H](c3ccc(Br)c(Br)c3)C2(Cl)Cl)ccc1Cl (relative stereo) [F111, 2-Chloro-5-(trans-2,2-dichloro-3-(3,4-dibromophenyl)cyclopropane-1-carboxamido)-N-(2,2,2-trifluoroethyl)benzamide]",50 to 100%,50 to 100%,A (80-100)
"CN(CCC(F)(F)F)C(=O)c1cc(NC(=O)[C@H]2[C@H](c3cc(Cl)cc(Cl)c3)C2(Cl)Cl)ccc1Cl (relative stereo) [F64, trans-2-Chloro-5-(2,2-dichloro-3-(3,5-dichlorophenyl)cyclopropane-1-carboxamido)-N-methyl-N-(3,3,3-trifluoropropyl)benzamide]",50 to 100%,50 to 100%,D (No activity noticed in this bioassay)
"O=C(NCC(F)(F)F)c1cc(NC(=O)[C@H]2[C@H](c3cc(F)cc(F)c3)C2(Cl)Cl)ccc1Cl (relative stereo) [F121, 2-Chloro-5-(trans-2,2-dichloro-3-(3,5-difluorophenyl)cyclopropane-1-carboxamido)-N-(2,2,2-trifluoroethyl)benzamide]",50 to 100%,50 to 100%,A (80-100)
"COCCNC(=O)c1cc(NC(=O)[C@H]2[C@H](c3cc(Cl)cc(Cl)c3)C2(Cl)Cl)ccc1Cl (relative stereo) [F53, trans-2-Chloro-5-(2,2-dichloro-3-(3,5-dichlorophenyl)cyclopropane-1-carboxamido)-N-(2-methoxyethyl)benzamide]",50 to 100%,50 to 100%,B (More than 0-Less than 80)
"O=C(NCC(F)(F)F)c1cc(NC(=O)[C@H]2[C@H](c3ccc(Cl)c(C(F)(F)F)c3)C2(Cl)Cl)ccc1Cl (relative stereo) [F117, 2-Chloro-5-(trans-2,2-dichloro-3-(4-chloro-3-(trifluoromethyl)phenyl)cyclopropane-1-carboxamido)-N-(2,2,2-trifluoroethyl)benzamide]",50 to 100%,50 to 100%,A (80-100)
"O=C(NCC(F)(F)F)c1cc(NC(=O)[C@H]2[C@H](c3ccc(F)c(Br)c3)C2(Cl)Cl)ccc1Cl (relative stereo) [F118, 5-(trans-3-(3-Bromo-4-fluorophenyl)-2,2-dichlorocyclopropane-1-carboxamido)-2-chloro-N-(2,2,2-trifluoroethyl)benzamide]",50 to 100%,50 to 100%,A (80-100)
"COC(=O)C(CCSC)NC(=O)c1cc(NC(=O)[C@H]2[C@H](c3cc(Cl)cc(Cl)c3)C2(Cl)Cl)ccc1Cl (relative stereo) [PF10, trans-Methyl-2-(2-chloro-5-(2,2-dichloro-3-(3,5-dichlorophenyl)cyclopropane-1-carboxamido)benzamido)-4-(methylthio)butanoate]",50 to 100%,50 to 100%,B (More than 0-Less than 80)
"O=C(NCCC1CC1)c1cc(NC(=O)C2C(c3cc(Cl)cc(Cl)c3)C2(Cl)Cl)ccc1Cl (stereo not drawn) [F24, trans-N-2-Chloro-N-(2-cyclopropylethyl)-5-(2,2-dichloro-3-(3,5-dichlorophenyl)cyclopropane-1-carboxamido)benzamide]",50 to 100%,50 to 100%,A (80-100)
"O=C(NCCF)c1cc(NC(=O)[C@H]2[C@H](c3cc(Cl)cc(Cl)c3)C2(Cl)Cl)cc(Cl)c1Cl (relative stereo) [F92, trans-2,3-Dichloro-5-(2,2-dichloro-3-(3,5-dichlorophenyl)cyclopropane-1-carboxamido)-N-(2-fluoroethyl)benzamide]",50 to 100%,50 to 100%,A (80-100)
"CNC(=O)c1cc(NC(=O)[C@H]2[C@H](c3cc(Cl)cc(Cl)c3)C2(Cl)Cl)ccc1Cl (relative stereo) [F1, trans-2-chloro-5-(2,2-dichloro-3-(3,5-dichlorophenyl)cyclopropane-1-carboxamido)-N-methylbenzamide]",50 to 100%,50 to 100%,A (80-100)
"O=C(NCC(F)(F)F)c1cc(NC(=O)[C@H]2[C@H](c3ccc(C(F)F)cc3)C2(Cl)Cl)ccc1Cl (relative stereo) [F135, 2-Chloro-5-(trans-2,2-dichloro-3-(4-(difluoromethyl)phenyl)cyclopropane-1-carboxamido)-N-(2,2,2-trifluoroethyl)benzamide]",0%,50 to 100%,A (80-100)
"O=C(NCCC1CC1)c1cc(NC(=O)C2C(c3ccc(Cl)c(Cl)c3)C2(Cl)Cl)ccc1Cl (stereo not drawn) [F25, trans-N-2-Chloro-N-(2-cyclopropylethyl)-5-(2,2-dichloro-3-(3,4-dichlorophenyl)cyclopropane-1-carboxamido)benzamide]",50 to 100%,50 to 100%,A (80-100)
"O=C(NCc1cccnc1)c1cc(NC(=O)[C@H]2[C@H](c3cc(Cl)c(Cl)c(Cl)c3)C2(Cl)Cl)ccc1Cl (relative stereo) [F7, trans-2-Chloro-5-(2,2-dichloro-3-(3,4,5-trichlorophenyl)cyclopropane-1-carboxamido)-N-(pyridin-3-ylmethyl)benzamide]",50 to 100%,50 to 100%,A (80-100)
"O=C(NCCSCc1ccco1)c1cc(NC(=O)[C@H]2[C@H](c3cc(Cl)cc(Cl)c3)C2(Cl)Cl)ccc1Cl (relative stereo) [PF9, trans-2-Chloro-5-(2,2-dichloro-3-(3,5-dichlorophenyl)cyclopropane-1-carboxamido)-N-(2-((furan-2-ylmethyl)thio)ethyl)benzamide]",50 to 100%,50 to 100%,A (80-100)
"O=C(NCCC(F)(F)F)c1cc(NC(=O)[C@H]2[C@H](c3cc(Cl)cc(Cl)c3)C2(Cl)Cl)cc(Cl)c1Cl (relative stereo) [F94, trans-2,3-Dichloro-5-(2,2-dichloro-3-(3,5-dichlorophenyl)cyclopropane-1-carboxamido)-N-(3,3,3-trifluoropropyl)benzamide]",50 to 100%,50 to 100%,A (80-100)
"O=C(NCCN1CCNC1=O)c1cc(NC(=O)[C@H]2[C@H](c3cc(Cl)cc(Cl)c3)C2(Cl)Cl)ccc1Cl (relative stereo) [F79, trans-2-Chloro-5-(2,2-dichloro-3-(3,5-dichlorophenyl)cyclopropane-1-carboxamido)-N-(2-(2-oxoimidazolidin-1-yl)ethyl)benzamide]",50 to 100%,50 to 100%,A (80-100)
"O=C(NCC(F)(F)F)c1cc(NC(=O)[C@H]2[C@H](c3ccc(Br)c(F)c3)C2(Cl)Cl)ccc1Cl (relative stereo) [F113, 5-(trans-3-(4-Bromo-3-fluorophenyl)-2,2-dichlorocyclopropane-1-carboxamido)-2-chloro-N-(2,2,2-trifluoroethyl)benzamide]",50 to 100%,50 to 100%,A (80-100)
"O=C(NCCF)c1cc(NC(=O)[C@H]2[C@H](c3ccc(F)c(Cl)c3)C2(Cl)Cl)ccc1Cl (relative stereo) [F104, trans-2-Chloro-5-(2,2-dichloro-3-(3-chloro-4-fluorophenyl)cyclopropane-1-carboxamido)-N-(2-fluoroethyl)benzamide]",50 to 100%,50 to 100%,A (80-100)
"CCNC(=O)c1cc(NC(=O)[C@H]2[C@H](c3ccc(F)c(Cl)c3)C2(Cl)Cl)ccc1Cl (relative stereo) [F103, trans-2-Chloro-5-(2,2-dichloro-3-(3-chloro-4-fluorophenyl)cyclopropane-1-carboxamido)-N-ethylbenzamide]",50 to 100%,50 to 100%,A (80-100)
"O=C(NCC(F)(F)F)c1cc(NC(=O)[C@H]2[C@H](c3ccc(F)c(Cl)c3)C2(Cl)Cl)ccc1Cl (relative stereo) [F105, trans-2-Chloro-5-(2,2-dichloro-3-(3-chloro-4-fluorophenyl)cyclopropane-1-carboxamido)-N-(2,2,2-trifluoroethyl)benzamide]",50 to 100%,50 to 100%,A (80-100)
